Data: PubChem BioAssay (NCI)
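Cultured in 96-well plates, cells were exposed to test compound for 48 hours across five concentrations. GI50 marks 50% less growth. TGI is the concentration that stops growth completely.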

Legend:
Assay in all cases: growth of human tumour cells (NCI), 48 h
786-0 renal = system: 786-0 renal
A498 renal = system: A498 renal
A549 NSCLC = system: A549 NSCLC
ACHN renal = system: ACHN renal
BT-549 breast = system: BT-549 breast
CAKI-1 renal = system: CAKI-1 renal
CCRF-CEM leukemia = system: CCRF-CEM leukemia
DU-145 prostate = system: DU-145 prostate
HCC-2998 colon = system: HCC-2998 colon
HCT-116 colon = system: HCT-116 colon
HCT-15 colon = system: HCT-15 colon
HOP-62 NSCLC = system: HOP-62 NSCLC
HOP-92 NSCLC = system: HOP-92 NSCLC
HS 578T breast = system: HS 578T breast
IGROV1 ovarian = system: IGROV1 ovarian
K-562 leukemia = system: K-562 leukemia
KM12 colon = system: KM12 colon
MALME-3M melanoma = system: MALME-3M melanoma
MCF7 breast = system: MCF7 breast
MDA-MB-231 breast = system: MDA-MB-231 breast
MDA-MB-435 = system: MDA-MB-435
NCI-H226 lung = system: NCI-H226 lung
NCI-H23 lung = system: NCI-H23 lung
NCI-H460 lung = system: NCI-H460 lung
NCI-H522 lung = system: NCI-H522 lung
NCI/ADR-RES ovarian = system: NCI/ADR-RES ovarian
OVCAR-3 ovarian = system: OVCAR-3 ovarian
OVCAR-5 ovarian = system: OVCAR-5 ovarian
OVCAR-8 ovarian = system: OVCAR-8 ovarian
PC-3 prostate = system: PC-3 prostate
RPMI-8226 leukemia = system: RPMI-8226 leukemia
RXF 393 renal = system: RXF 393 renal
SF-268 CNS = system: SF-268 CNS
SF-295 CNS = system: SF-295 CNS
SF-539 CNS = system: SF-539 CNS
SK-MEL-2 melanoma = system: SK-MEL-2 melanoma
SK-MEL-28 melanoma = system: SK-MEL-28 melanoma
SK-OV-3 ovarian = system: SK-OV-3 ovarian
SN12C renal = system: SN12C renal
SNB-19 CNS = system: SNB-19 CNS
SNB-75 CNS = system: SNB-75 CNS
SR leukemia = system: SR leukemia
SW-620 colon = system: SW-620 colon
T-47D breast = system: T-47D breast
TK-10 renal = system: TK-10 renal
UACC-257 melanoma = system: UACC-257 melanoma
UACC-62 melanoma = system: UACC-62 melanoma
UO-31 renal = system: UO-31 renal
EKVX NSCLC = system: EKVX NSCLC
HL-60(TB) leukemia = system: HL-60(TB) leukemia
HT29 colon = system: HT29 colon
LOX IMVI melanoma = system: LOX IMVI melanoma
M14 melanoma = system: M14 melanoma
MOLT-4 leukemia = system: MOLT-4 leukemia
OVCAR-4 ovarian = system: OVCAR-4 ovarian
SK-MEL-5 melanoma = system: SK-MEL-5 melanoma
U251 CNS = system: U251 CNS

Cc1nc2ccc(Nc3nc(Cl)nc(N4CCOCC4)n3)cc2n1Cc1ccccc1
GI50 (786-0 renal): 11.7 µM
TGI (786-0 renal): > 100 µM
GI50 (A498 renal): 2.85 µM
TGI (A498 renal): > 100 µM
GI50 (A549 NSCLC): 50.3 µM
TGI (A549 NSCLC): > 100 µM
GI50 (ACHN renal): 9.35 µM
TGI (ACHN renal): 28.7 µM
GI50 (BT-549 breast): 2.89 µM
TGI (BT-549 breast): 29.4 µM
GI50 (CAKI-1 renal): 20.2 µM
TGI (CAKI-1 renal): > 100 µM
GI50 (CCRF-CEM leukemia): 2.93 µM
TGI (CCRF-CEM leukemia): > 100 µM
GI50 (DU-145 prostate): 28.1 µM
TGI (DU-145 prostate): > 100 µM
GI50 (HCC-2998 colon): 2.05 µM
TGI (HCC-2998 colon): 3.85 µM
GI50 (HCT-116 colon): 5.16 µM
TGI (HCT-116 colon): 89 µM
GI50 (HCT-15 colon): 2.94 µM
TGI (HCT-15 colon): 14.1 µM
GI50 (HOP-62 NSCLC): 16.2 µM
TGI (HOP-62 NSCLC): > 100 µM
GI50 (HOP-92 NSCLC): 2.07 µM
TGI (HOP-92 NSCLC): 6.36 µM
GI50 (HS 578T breast): 4.67 µM
TGI (HS 578T breast): > 100 µM
GI50 (IGROV1 ovarian): 2.58 µM
TGI (IGROV1 ovarian): 6.41 µM
GI50 (K-562 leukemia): 2.82 µM
TGI (K-562 leukemia): > 100 µM
GI50 (KM12 colon): > 100 µM
TGI (KM12 colon): > 100 µM
GI50 (MALME-3M melanoma): 5.24 µM
TGI (MALME-3M melanoma): 24.5 µM
GI50 (MCF7 breast): 18.4 µM
TGI (MCF7 breast): > 100 µM
GI50 (MDA-MB-231 breast): 2.22 µM
TGI (MDA-MB-231 breast): 9.44 µM
GI50 (MDA-MB-435): 8.23 µM
TGI (MDA-MB-435): > 100 µM
GI50 (NCI-H226 lung): 7.88 µM
TGI (NCI-H226 lung): 48.9 µM
GI50 (NCI-H23 lung): 1.94 µM
TGI (NCI-H23 lung): 3.92 µM
GI50 (NCI-H460 lung): 11.9 µM
TGI (NCI-H460 lung): > 100 µM
GI50 (NCI-H522 lung): 2.98 µM
TGI (NCI-H522 lung): 20.8 µM
GI50 (NCI/ADR-RES ovarian): 4.43 µM
TGI (NCI/ADR-RES ovarian): > 100 µM
GI50 (OVCAR-3 ovarian): 4.19 µM
TGI (OVCAR-3 ovarian): 36 µM
GI50 (OVCAR-5 ovarian): > 100 µM
TGI (OVCAR-5 ovarian): > 100 µM
GI50 (OVCAR-8 ovarian): 2.95 µM
TGI (OVCAR-8 ovarian): > 100 µM
GI50 (PC-3 prostate): 10 µM
TGI (PC-3 prostate): > 100 µM
GI50 (RPMI-8226 leukemia): 97.2 µM
TGI (RPMI-8226 leukemia): > 100 µM
GI50 (RXF 393 renal): 1.85 µM
TGI (RXF 393 renal): 3.58 µM
GI50 (SF-268 CNS): 3.11 µM
TGI (SF-268 CNS): > 100 µM
GI50 (SF-295 CNS): 11.9 µM
TGI (SF-295 CNS): 82 µM
GI50 (SF-539 CNS): 14.2 µM
TGI (SF-539 CNS): 47.6 µM
GI50 (SK-MEL-2 melanoma): 3.54 µM
TGI (SK-MEL-2 melanoma): 26 µM
GI50 (SK-MEL-28 melanoma): 1.75 µM
TGI (SK-MEL-28 melanoma): 3.29 µM
GI50 (SK-OV-3 ovarian): 3.66 µM
TGI (SK-OV-3 ovarian): > 100 µM
GI50 (SN12C renal): 6.79 µM
TGI (SN12C renal): 88 µM
GI50 (SNB-19 CNS): 18.2 µM
TGI (SNB-19 CNS): > 100 µM
GI50 (SNB-75 CNS): 4.47 µM
TGI (SNB-75 CNS): 29.6 µM
GI50 (SR leukemia): 2.83 µM
TGI (SR leukemia): > 100 µM
GI50 (SW-620 colon): 3.1 µM
TGI (SW-620 colon): > 100 µM
GI50 (T-47D breast): 3.27 µM
TGI (T-47D breast): > 100 µM
GI50 (TK-10 renal): 35.8 µM
TGI (TK-10 renal): > 100 µM
GI50 (UACC-257 melanoma): 5.93 µM
TGI (UACC-257 melanoma): > 100 µM
GI50 (UACC-62 melanoma): 3.43 µM
TGI (UACC-62 melanoma): 22.9 µM
GI50 (UO-31 renal): 8.89 µM
TGI (UO-31 renal): > 100 µM

NNC(=S)N/N=C(\C(=O)Nc1cccc(O)c1)C1C(=O)NC(=S)NC1=O
TGI (786-0 renal): > 100 µM
TGI (A498 renal): > 100 µM
TGI (A549 NSCLC): > 100 µM
TGI (ACHN renal): > 100 µM
TGI (BT-549 breast): > 100 µM
TGI (CAKI-1 renal): > 100 µM
TGI (CCRF-CEM leukemia): > 100 µM
TGI (EKVX NSCLC): > 100 µM
TGI (HCC-2998 colon): > 100 µM
TGI (HCT-116 colon): > 100 µM
TGI (HCT-15 colon): > 100 µM
TGI (HL-60(TB) leukemia): > 100 µM
TGI (HOP-62 NSCLC): > 100 µM
TGI (HOP-92 NSCLC): > 100 µM
TGI (HS 578T breast): > 100 µM
TGI (HT29 colon): > 100 µM
TGI (IGROV1 ovarian): > 100 µM
TGI (K-562 leukemia): > 100 µM
TGI (KM12 colon): > 100 µM
TGI (LOX IMVI melanoma): > 100 µM
TGI (M14 melanoma): > 100 µM
TGI (MALME-3M melanoma): > 100 µM
TGI (MCF7 breast): > 100 µM
TGI (MDA-MB-231 breast): > 100 µM
TGI (MDA-MB-435): > 100 µM
TGI (MOLT-4 leukemia): > 100 µM
TGI (NCI-H226 lung): > 100 µM
TGI (NCI-H460 lung): > 100 µM
TGI (NCI-H522 lung): > 100 µM
TGI (NCI/ADR-RES ovarian): > 100 µM
TGI (OVCAR-3 ovarian): > 100 µM
TGI (OVCAR-4 ovarian): > 100 µM
TGI (OVCAR-5 ovarian): > 100 µM
TGI (OVCAR-8 ovarian): > 100 µM
TGI (PC-3 prostate): > 100 µM
TGI (RPMI-8226 leukemia): > 100 µM
TGI (RXF 393 renal): > 100 µM
TGI (SF-268 CNS): > 100 µM
TGI (SF-295 CNS): > 100 µM
TGI (SF-539 CNS): > 100 µM
TGI (SK-MEL-2 melanoma): > 100 µM
TGI (SK-MEL-28 melanoma): > 100 µM
TGI (SK-MEL-5 melanoma): > 100 µM
TGI (SK-OV-3 ovarian): > 100 µM
TGI (SN12C renal): > 100 µM
TGI (SNB-19 CNS): > 100 µM
TGI (SNB-75 CNS): > 100 µM
TGI (SR leukemia): > 100 µM
TGI (SW-620 colon): > 100 µM
TGI (T-47D breast): > 100 µM
TGI (TK-10 renal): > 100 µM
TGI (U251 CNS): > 100 µM
TGI (UACC-257 melanoma): > 100 µM
TGI (UACC-62 melanoma): > 100 µM
TGI (UO-31 renal): > 100 µM
